Drawing on the Kinase Knowledgebase extract (Sharma et al. 2016), this text covers IC50 and inhibition for 21 compounds.

As a reminder, the IC50 is the midpoint of a concentration-inhibition curve. A low value points to higher potency. Broadly, the inhibition is the drop in the measured response relative to a control, in per cent.

In one assay the target is ROCK2 (human) (UniProt O75116). As to the kind of experiment: Inhibition of ROCK2 Kinase Activity.
Sequence of ROCK2 (human) (O75116 whole entry, looked up): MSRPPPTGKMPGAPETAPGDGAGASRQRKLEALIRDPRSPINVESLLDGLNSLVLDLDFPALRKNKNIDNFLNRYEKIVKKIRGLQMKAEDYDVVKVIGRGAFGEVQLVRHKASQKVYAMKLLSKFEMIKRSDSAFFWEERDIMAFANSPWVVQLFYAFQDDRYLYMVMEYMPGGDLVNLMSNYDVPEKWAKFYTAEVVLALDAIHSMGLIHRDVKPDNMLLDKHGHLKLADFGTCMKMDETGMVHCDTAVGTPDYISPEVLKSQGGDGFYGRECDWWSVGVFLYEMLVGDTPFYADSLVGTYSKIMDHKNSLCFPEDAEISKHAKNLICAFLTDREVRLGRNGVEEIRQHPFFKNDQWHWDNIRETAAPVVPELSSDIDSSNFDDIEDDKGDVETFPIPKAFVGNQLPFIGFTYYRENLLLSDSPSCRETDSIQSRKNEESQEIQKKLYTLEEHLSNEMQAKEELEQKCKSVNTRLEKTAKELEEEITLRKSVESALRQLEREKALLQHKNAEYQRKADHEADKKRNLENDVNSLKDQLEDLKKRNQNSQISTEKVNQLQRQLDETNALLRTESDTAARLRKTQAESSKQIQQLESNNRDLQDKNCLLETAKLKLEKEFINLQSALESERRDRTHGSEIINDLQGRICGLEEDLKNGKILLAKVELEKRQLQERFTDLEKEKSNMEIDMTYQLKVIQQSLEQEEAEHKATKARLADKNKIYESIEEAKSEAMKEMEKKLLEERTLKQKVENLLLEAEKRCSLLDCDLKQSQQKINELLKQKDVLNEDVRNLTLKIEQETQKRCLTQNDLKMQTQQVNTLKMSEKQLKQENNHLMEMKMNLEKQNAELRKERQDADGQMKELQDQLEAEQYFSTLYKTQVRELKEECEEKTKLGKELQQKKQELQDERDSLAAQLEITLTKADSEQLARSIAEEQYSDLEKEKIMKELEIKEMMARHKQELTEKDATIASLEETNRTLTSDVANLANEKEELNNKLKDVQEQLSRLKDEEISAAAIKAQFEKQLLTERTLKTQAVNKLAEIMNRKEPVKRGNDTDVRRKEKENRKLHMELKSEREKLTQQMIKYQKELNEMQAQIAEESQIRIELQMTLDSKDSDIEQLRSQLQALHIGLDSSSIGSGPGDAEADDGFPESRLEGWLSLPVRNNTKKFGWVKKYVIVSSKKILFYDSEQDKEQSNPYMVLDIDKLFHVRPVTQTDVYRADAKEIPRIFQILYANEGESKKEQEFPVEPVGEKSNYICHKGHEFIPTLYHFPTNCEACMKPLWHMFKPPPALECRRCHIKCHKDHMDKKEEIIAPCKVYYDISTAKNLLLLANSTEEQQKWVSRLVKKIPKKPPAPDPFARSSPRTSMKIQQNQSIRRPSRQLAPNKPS
Settings: not given
In turn, `C=CC[C@@H](N)[C@H]1CC[C@H](C(=O)Nc2ccncc2)CC1` gave an IC50 of 1.9 µM.

`CCCCCCCCN(N)[C@H]1CC[C@H](C(=O)Nc2ccncc2)CC1` came in with an IC50 of 6.5 µM.

Still in this assay, the particulars now being: concentration not given here.
Consider `NN(C/C=C/c1ccccc1)[C@H]1CC[C@H](C(=O)Nc2ccncc2)CC1`, for which the inhibition turned out to be 49%.

Take `NN(CCc1ccccc1)[C@H]1CC[C@H](C(=O)Nc2ccncc2)CC1`: the inhibition amounted to 46%.

`CC(C)CCN(N)[C@H]1CC[C@@H](C(=O)Nc2ccncc2)CC1` had an inhibition of 13%.

For `NN(Cc1ccc(OCc2ccccc2)cc1)[C@H]1CC[C@H](C(=O)Nc2ccncc2)CC1`, the inhibition was found to be 59%.

For `CN(N)[C@H]1CC[C@@H](C(=O)Nc2ccncc2)CC1`, the inhibition turned out to be 33%.

The compound `NN(CC1CCCCC1)[C@H]1CC[C@H](C(=O)Nc2ccncc2)CC1` had an inhibition of 40%.

The compound `C=CC[C@H](N)[C@H]1CC[C@H](C(=O)Nc2ccncc2)CC1` gave an inhibition of 63%.

In turn, `CCCN(N)[C@H]1CC[C@@H](C(=O)Nc2ccncc2)CC1` came in with an inhibition of 19%.

For the compound `CN(N)[C@H]1CC[C@H](C(=O)Nc2ccncc2)CC1`, the inhibition amounted to 63%.

`CC(C)CCN(N)[C@H]1CC[C@H](C(=O)Nc2ccncc2)CC1` registered an inhibition of 43%.

`CC(C)N(N)[C@H]1CC[C@H](C(=O)Nc2ccncc2)CC1`: the inhibition is 45%.

In turn, `C=CC[C@@H](N)[C@H]1CC[C@H](C(=O)Nc2ccncc2)CC1` had an inhibition of 81%.

As to `C=CCC(NC)[C@H]1CC[C@H](C(=O)Nc2ccncc2)CC1` (stereo partly drawn), the inhibition is 45%.

`C=CCC(N)[C@H]1CC[C@H](C(=O)Nc2ncnc3[nH]cnc23)CC1` (stereo partly drawn): the inhibition is 0%.

With `NN(CC(c1ccccc1)c1ccccc1)[C@H]1CC[C@H](C(=O)Nc2ccncc2)CC1`, the inhibition worked out at 45%.

In turn, `NN(Cc1ccccc1)[C@H]1CC[C@@H](C(=O)Nc2ccncc2)CC1` returned an inhibition of 32%.

Take `CC(C)N(N)[C@H]1CC[C@@H](C(=O)Nc2ccncc2)CC1`: the inhibition came to 25%.

For the compound `CCCCCCCCN(N)[C@H]1CC[C@H](C(=O)Nc2ccncc2)CC1`, the inhibition turned out to be 53%.

Turning to `CCCN(N)[C@H]1CC[C@H](C(=O)Nc2ccncc2)CC1`, the inhibition was 45%.

Consider `C=CCC(NCc1ccccc1)[C@H]1CC[C@H](C(=O)Nc2ccncc2)CC1` (stereo partly drawn), for which the inhibition came out at 44%.

Compound `NN(Cc1ccccc1)[C@H]1CC[C@H](C(=O)Nc2ccncc2)CC1` returned an inhibition of 61%.
